ChEMBL document CHEMBL3991601, “The target landscape of clinical kinase drugs” (Science, 2017)
The source made the active and inactive calls. For most assays here, no stated cut-off is given here; in the data, actives have a measured Kd and inactives only a lower limit.

Key:
[1] = target: Ribosomal protein S6 kinase alpha-4 (Homo sapiens, UniProt O75676)
[2] = target: Mitogen-activated protein kinase kinase kinase 1 (Homo sapiens, UniProt Q13233)
[3] = target: T1, DNA replication licensing factor MCM4 (Homo sapiens, UniProt P33991)
T1 sequence (P33991 whole entry): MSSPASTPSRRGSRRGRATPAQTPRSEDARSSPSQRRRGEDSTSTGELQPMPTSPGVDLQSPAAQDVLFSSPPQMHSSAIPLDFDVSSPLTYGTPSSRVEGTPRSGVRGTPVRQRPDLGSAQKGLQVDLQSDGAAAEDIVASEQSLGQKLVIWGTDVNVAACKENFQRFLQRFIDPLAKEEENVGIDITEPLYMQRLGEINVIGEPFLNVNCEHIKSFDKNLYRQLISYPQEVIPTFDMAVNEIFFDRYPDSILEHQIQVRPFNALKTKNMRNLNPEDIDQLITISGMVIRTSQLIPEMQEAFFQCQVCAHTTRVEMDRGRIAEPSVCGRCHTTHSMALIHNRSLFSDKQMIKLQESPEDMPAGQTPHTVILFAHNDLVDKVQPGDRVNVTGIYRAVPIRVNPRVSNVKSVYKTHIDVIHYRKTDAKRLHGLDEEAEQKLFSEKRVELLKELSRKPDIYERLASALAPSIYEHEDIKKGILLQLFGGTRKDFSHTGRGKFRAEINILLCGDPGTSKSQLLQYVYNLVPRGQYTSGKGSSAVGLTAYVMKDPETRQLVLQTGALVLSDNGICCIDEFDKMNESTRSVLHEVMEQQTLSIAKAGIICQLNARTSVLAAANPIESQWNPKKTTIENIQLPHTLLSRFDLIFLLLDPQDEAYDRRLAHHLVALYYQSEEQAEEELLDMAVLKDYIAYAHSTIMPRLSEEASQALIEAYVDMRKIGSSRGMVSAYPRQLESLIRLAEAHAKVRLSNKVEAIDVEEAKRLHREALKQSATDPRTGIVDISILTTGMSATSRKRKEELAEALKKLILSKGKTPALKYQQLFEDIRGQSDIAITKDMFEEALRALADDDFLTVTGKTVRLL

[4] = target: Macrophage-stimulating protein receptor (Homo sapiens, UniProt Q04912)
[5] = target: T2, Interleukin-1 receptor-associated kinase 3 (Homo sapiens, UniProt Q9Y616)
T2 sequence (Q9Y616 whole entry): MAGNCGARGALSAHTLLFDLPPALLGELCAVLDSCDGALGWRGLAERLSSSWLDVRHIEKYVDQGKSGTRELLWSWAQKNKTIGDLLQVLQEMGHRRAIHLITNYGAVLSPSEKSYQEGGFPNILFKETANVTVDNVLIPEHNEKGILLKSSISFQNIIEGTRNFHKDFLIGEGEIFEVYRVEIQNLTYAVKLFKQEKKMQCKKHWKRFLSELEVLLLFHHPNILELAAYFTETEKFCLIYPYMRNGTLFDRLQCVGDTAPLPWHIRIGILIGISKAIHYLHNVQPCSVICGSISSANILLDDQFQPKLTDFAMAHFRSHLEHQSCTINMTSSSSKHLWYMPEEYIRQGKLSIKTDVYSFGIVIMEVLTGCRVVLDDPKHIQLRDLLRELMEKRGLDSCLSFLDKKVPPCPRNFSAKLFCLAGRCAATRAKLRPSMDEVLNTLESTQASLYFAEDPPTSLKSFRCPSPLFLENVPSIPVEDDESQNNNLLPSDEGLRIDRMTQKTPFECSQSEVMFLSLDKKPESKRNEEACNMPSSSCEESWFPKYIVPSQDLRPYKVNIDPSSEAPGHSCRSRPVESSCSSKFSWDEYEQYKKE

[6] = target: Ribosomal protein S6 kinase alpha-1 (Homo sapiens, UniProt Q15418)
[7] = target: T3, Serine/threonine-protein kinase LATS1 (Homo sapiens, UniProt O95835)
T3 sequence (O95835 whole entry): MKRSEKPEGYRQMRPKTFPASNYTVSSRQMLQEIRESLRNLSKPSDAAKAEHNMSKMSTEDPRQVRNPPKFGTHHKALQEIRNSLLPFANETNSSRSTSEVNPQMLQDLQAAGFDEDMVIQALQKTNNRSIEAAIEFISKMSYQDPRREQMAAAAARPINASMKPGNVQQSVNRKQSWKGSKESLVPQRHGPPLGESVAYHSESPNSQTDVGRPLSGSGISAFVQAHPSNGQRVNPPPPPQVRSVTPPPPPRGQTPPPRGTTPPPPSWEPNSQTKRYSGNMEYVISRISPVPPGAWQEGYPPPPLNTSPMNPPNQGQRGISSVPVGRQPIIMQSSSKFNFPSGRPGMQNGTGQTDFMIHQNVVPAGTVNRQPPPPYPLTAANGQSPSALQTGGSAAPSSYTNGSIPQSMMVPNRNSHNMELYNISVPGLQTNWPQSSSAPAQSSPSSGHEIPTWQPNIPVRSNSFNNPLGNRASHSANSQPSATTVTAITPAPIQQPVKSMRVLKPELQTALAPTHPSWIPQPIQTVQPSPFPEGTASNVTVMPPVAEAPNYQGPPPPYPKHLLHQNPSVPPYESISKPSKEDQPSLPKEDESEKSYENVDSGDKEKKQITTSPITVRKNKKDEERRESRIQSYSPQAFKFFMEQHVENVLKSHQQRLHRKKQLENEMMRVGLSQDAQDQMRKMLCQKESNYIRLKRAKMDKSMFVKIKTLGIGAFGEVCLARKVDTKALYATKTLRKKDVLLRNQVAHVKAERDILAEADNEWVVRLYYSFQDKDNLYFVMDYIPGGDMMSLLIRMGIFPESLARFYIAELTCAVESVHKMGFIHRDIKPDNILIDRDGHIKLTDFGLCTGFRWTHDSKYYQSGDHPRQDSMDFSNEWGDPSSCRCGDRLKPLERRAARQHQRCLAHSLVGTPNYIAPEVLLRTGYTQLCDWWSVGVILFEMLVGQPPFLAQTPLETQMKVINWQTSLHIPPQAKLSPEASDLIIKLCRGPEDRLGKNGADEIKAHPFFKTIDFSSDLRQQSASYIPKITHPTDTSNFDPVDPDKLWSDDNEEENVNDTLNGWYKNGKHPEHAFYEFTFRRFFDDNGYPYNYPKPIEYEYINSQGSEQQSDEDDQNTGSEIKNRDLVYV

[8] = target: Cyclin-dependent kinase 4 (Homo sapiens, UniProt P11802)
[9] = target: cAMP-dependent protein kinase catalytic subunit alpha (Homo sapiens, UniProt P17612)

Sequence of Ribosomal protein S6 kinase alpha-1 (Q15418 whole entry): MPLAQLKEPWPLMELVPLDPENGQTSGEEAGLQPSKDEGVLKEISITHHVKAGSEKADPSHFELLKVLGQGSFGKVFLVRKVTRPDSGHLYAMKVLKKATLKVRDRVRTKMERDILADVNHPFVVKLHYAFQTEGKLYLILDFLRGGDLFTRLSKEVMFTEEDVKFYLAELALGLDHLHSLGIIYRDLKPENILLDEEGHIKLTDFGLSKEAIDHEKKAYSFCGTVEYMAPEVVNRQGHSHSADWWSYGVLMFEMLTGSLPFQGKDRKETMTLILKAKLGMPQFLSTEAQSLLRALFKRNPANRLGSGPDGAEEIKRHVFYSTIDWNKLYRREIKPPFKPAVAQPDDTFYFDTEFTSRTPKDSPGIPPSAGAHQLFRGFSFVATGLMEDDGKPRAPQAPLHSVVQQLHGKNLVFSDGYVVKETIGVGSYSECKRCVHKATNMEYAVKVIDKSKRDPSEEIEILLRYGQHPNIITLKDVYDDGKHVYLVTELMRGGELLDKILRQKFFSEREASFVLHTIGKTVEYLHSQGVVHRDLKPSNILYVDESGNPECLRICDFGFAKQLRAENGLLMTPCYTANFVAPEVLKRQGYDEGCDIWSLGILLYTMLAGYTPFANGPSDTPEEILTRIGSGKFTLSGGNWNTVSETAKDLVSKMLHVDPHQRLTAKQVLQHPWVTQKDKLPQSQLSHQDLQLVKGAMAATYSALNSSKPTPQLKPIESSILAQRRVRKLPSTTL
Sequence of Macrophage-stimulating protein receptor (Q04912 25-304 limits assumed): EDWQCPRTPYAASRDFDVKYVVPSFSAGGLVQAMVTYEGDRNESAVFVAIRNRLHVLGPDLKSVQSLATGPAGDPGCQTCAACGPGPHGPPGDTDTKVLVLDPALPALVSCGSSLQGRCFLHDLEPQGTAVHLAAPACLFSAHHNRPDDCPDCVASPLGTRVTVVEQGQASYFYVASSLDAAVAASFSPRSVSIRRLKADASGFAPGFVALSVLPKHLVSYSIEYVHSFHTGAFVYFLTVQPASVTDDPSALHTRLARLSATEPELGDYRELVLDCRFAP
Sequence of Macrophage-stimulating protein receptor (Q04912 310-1400 limits assumed): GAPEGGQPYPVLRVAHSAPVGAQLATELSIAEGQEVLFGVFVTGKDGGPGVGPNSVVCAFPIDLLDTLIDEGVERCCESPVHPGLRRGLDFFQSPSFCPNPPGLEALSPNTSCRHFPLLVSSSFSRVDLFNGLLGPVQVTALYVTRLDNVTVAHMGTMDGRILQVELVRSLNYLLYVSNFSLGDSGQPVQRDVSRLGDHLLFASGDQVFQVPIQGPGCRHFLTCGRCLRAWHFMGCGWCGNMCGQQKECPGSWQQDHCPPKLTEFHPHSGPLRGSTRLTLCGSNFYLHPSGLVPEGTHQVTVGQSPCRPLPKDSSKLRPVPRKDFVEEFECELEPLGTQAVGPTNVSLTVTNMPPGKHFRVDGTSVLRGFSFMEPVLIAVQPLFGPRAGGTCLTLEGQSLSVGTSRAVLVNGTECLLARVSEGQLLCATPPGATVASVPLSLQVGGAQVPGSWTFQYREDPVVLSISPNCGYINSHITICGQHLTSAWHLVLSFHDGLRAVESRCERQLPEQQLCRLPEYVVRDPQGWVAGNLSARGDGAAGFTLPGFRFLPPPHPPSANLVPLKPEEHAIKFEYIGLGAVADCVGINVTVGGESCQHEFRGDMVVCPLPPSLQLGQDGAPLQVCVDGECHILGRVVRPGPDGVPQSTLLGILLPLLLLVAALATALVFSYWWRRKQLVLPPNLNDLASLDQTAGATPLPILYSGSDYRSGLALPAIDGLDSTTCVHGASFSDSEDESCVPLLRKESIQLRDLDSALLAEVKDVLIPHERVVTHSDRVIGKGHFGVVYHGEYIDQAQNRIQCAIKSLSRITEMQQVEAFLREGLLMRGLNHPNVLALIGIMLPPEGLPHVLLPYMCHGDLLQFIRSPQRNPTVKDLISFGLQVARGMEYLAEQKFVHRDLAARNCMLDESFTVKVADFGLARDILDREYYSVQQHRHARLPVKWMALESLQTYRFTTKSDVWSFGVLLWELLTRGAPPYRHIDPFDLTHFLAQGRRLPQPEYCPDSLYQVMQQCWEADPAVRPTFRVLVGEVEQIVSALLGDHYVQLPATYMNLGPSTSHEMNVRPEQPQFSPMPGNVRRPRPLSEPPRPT
Sequence of Cyclin-dependent kinase 4 (P11802 whole entry): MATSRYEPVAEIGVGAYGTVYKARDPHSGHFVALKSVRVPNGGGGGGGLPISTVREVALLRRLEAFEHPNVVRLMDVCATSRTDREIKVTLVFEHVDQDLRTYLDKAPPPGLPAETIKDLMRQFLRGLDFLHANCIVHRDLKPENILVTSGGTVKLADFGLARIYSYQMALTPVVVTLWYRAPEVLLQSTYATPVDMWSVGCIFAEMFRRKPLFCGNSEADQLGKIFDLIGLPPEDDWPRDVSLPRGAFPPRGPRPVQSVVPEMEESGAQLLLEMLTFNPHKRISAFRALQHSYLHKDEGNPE
Sequence of Ribosomal protein S6 kinase alpha-4 (O75676 whole entry): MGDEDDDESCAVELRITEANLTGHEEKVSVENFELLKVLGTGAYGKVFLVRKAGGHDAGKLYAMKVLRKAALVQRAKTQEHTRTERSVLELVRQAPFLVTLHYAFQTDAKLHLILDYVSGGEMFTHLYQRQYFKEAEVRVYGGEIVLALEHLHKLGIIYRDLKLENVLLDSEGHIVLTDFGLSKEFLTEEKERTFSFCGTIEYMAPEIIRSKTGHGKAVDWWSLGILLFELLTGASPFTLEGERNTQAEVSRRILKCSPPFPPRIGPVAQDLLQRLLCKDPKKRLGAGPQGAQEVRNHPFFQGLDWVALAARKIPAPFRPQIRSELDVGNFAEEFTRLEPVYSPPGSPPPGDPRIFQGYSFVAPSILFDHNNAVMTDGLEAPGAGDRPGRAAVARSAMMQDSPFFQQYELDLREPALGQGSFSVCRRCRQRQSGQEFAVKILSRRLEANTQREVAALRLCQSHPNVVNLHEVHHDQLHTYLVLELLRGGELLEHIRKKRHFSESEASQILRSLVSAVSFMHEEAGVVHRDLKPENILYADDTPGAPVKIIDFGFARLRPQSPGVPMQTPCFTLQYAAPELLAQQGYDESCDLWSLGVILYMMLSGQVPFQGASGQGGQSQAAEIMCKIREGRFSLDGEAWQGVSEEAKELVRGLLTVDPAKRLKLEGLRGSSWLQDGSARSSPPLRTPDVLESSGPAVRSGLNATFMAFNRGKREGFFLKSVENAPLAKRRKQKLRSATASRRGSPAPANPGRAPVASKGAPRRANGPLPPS
Sequence of Mitogen-activated protein kinase kinase kinase 1 (Q13233 whole entry): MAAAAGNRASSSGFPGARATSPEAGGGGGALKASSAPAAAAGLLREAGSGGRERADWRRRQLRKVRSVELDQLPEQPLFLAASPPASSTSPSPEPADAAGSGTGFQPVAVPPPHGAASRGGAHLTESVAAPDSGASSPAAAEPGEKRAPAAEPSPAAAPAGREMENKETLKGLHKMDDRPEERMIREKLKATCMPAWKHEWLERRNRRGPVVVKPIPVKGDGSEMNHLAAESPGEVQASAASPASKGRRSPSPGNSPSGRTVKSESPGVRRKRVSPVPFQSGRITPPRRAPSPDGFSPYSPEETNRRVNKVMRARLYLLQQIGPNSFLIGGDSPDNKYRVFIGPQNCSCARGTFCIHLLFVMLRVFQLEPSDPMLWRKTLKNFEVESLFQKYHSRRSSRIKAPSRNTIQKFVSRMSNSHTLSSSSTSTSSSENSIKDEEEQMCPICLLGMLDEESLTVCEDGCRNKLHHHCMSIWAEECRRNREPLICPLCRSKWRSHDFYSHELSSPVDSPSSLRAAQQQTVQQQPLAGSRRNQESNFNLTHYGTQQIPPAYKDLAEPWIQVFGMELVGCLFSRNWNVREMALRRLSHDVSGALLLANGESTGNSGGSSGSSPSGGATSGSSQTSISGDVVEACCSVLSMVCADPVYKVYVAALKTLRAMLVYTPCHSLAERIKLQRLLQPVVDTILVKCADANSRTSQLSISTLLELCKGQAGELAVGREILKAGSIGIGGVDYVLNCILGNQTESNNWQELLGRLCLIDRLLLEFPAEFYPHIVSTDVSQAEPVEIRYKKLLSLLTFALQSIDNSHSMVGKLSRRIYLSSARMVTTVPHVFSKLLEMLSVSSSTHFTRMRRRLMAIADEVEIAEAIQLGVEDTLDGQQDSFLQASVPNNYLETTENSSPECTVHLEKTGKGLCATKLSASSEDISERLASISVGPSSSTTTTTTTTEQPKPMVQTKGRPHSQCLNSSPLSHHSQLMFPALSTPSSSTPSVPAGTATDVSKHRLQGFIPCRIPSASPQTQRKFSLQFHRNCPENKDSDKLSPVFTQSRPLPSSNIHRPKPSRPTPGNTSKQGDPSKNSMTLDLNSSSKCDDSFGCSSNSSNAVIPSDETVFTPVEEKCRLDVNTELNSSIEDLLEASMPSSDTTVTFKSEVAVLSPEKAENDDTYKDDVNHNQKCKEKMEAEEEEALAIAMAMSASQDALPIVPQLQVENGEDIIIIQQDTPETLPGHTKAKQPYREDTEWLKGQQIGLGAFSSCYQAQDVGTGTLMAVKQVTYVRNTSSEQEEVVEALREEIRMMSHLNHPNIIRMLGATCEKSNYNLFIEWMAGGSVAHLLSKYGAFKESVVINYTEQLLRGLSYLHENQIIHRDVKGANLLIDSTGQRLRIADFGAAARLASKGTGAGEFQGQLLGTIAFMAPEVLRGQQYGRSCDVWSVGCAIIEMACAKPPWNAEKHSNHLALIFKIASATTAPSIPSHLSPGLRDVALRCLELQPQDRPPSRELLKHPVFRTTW

Row | Compound | Kd [1] | Kd [2] | Kd [3] | Kd [4] | Kd [5] | Kd [6] | Kd [7] | Kd [8] | Kd [9]
1 | CNC(=O)c1ccc(C)c(-n2c(C)cc(OCc3ccc(F)cc3F)c(Br)c2=O)c1 [PH-797804] | > 30 µM (inactive) | > 30 µM (inactive) | > 30 µM (inactive) | > 30 µM (inactive) | > 30 µM (inactive) | > 30 µM (inactive) | > 30 µM (inactive) | > 30 µM (inactive) | > 30 µM (inactive)
2 | CNC(=O)c1cc(Oc2ccc(NC(=O)Nc3ccc(Cl)c(C(F)(F)F)c3)c(F)c2)ccn1 [REGORAFENIB] | > 30 µM (inactive) | 0.465 µM (active) | > 30 µM (inactive) | > 30 µM (inactive) | > 30 µM (inactive) | > 30 µM (inactive) | > 30 µM (inactive) | > 30 µM (inactive) | > 30 µM (inactive)
3 | COCCNCc1ccc(-c2cc3nccc(Oc4ccc(NC(=S)NC(=O)Cc5ccc(F)cc5)cc4F)c3s2)nc1 [GLESATINIB] | > 30 µM (inactive) | > 30 µM (inactive) | > 30 µM (inactive) | 2.32 µM (active) | > 30 µM (inactive) | > 30 µM (inactive) | > 30 µM (inactive) | > 30 µM (inactive) | > 30 µM (inactive)
4 | CCN1CCN(Cc2ccc(-c3cc4c(N[C@H](C)c5ccccc5)ncnc4[nH]3)cc2)CC1 [AEE-788] | > 30 µM (inactive) | > 30 µM (inactive) | > 30 µM (inactive) | > 30 µM (inactive) | > 30 µM (inactive) | > 30 µM (inactive) | > 30 µM (inactive) | > 30 µM (inactive) | > 30 µM (inactive)
5 | CN1CC[C@@H](c2c(O)cc(O)c3c(=O)cc(-c4ccccc4Cl)oc23)[C@@H]1CO | > 30 µM (inactive) | > 30 µM (inactive) | > 30 µM (inactive) | > 30 µM (inactive) | > 30 µM (inactive) | > 30 µM (inactive) | > 30 µM (inactive) | > 30 µM (inactive) | > 30 µM (inactive)
6 | COc1cc2nccc(Oc3ccc(NC(=O)Nc4cc(C)on4)c(Cl)c3)c2cc1OC [TIVOZANIB] | > 30 µM (inactive) | > 30 µM (inactive) | > 30 µM (inactive) | > 30 µM (inactive) | > 30 µM (inactive) | > 30 µM (inactive) | > 30 µM (inactive) | > 30 µM (inactive) | > 30 µM (inactive)
7 | CNC(=O)c1ccc(-c2cnc3ncc(Cc4ccc5ncccc5c4)n3n2)cc1F [CAPMATINIB] | > 30 µM (inactive) | > 30 µM (inactive) | > 30 µM (inactive) | > 30 µM (inactive) | > 30 µM (inactive) | > 30 µM (inactive) | > 30 µM (inactive) | > 30 µM (inactive) | > 30 µM (inactive)
8 | C[C@@H](c1ccc2nccn2c1)n1nnc2ncc(-c3cnn(C)c3)nc21 [SAVOLITINIB] | > 30 µM (inactive) | > 30 µM (inactive) | > 30 µM (inactive) | > 30 µM (inactive) | > 30 µM (inactive) | > 30 µM (inactive) | > 30 µM (inactive) | > 30 µM (inactive) | > 30 µM (inactive)
9 | CC[C@@H]1C(=O)N(C)c2cnc(Nc3ccc(C(=O)N[C@H]4CC[C@H](N5CCN(CC6CC6)CC5)CC4)cc3OC)nc2N1C(C)C [VOLASERTIB] | > 30 µM (inactive) | > 30 µM (inactive) | > 30 µM (inactive) | > 30 µM (inactive) | > 30 µM (inactive) | > 30 µM (inactive) | > 30 µM (inactive) | > 30 µM (inactive) | > 30 µM (inactive)
10 | CN1CCC(COc2cnc(-c3cccc(Cn4nc(-c5cccc(C#N)c5)ccc4=O)c3)nc2)CC1 [TEPOTINIB] | > 30 µM (inactive) | > 30 µM (inactive) | > 30 µM (inactive) | > 30 µM (inactive) | > 30 µM (inactive) | > 30 µM (inactive) | > 30 µM (inactive) | > 30 µM (inactive) | > 30 µM (inactive)
11 | Cc1cc2c(F)c(Oc3ncnn4cc(OC[C@@H](C)OC(=O)[C@H](C)N)c(C)c34)ccc2[nH]1 [BRIVANIB ALANINATE] | > 30 µM (inactive) | > 30 µM (inactive) | > 30 µM (inactive) | > 30 µM (inactive) | > 30 µM (inactive) | > 30 µM (inactive) | > 30 µM (inactive) | > 30 µM (inactive) | > 30 µM (inactive)
12 | CN1N=C(N)c2cn([C@@H]3O[C@H](COP(=O)(O)O)[C@@H](O)[C@H]3O)c3ncnc1c23 [TRICIRIBINE PHOSPHATE] | > 30 µM (inactive) | > 30 µM (inactive) | > 30 µM (inactive) | > 30 µM (inactive) | > 30 µM (inactive) | > 30 µM (inactive) | > 30 µM (inactive) | > 30 µM (inactive) | > 30 µM (inactive)
13 | COC(=O)[C@@]1(O)C[C@H]2O[C@]1(C)n1c3ccccc3c3c4c(c5c6ccccc6n2c5c31)C(=O)NC4 [K-252A] | 0.432 µM (active) | > 30 µM (inactive) | > 30 µM (inactive) | > 30 µM (inactive) | 0.254 µM (active) | 2.99 µM (active) | 0.067 µM (active) | 0.014 µM | > 30 µM (inactive)
14 | CCS(=O)(=O)N1CC(CC#N)(n2cc(-c3ncnc4[nH]ccc34)cn2)C1 [BARICITINIB] | > 30 µM (inactive) | 1.89 µM (active) | > 30 µM (inactive) | > 30 µM (inactive) | > 30 µM (inactive) | > 30 µM (inactive) | > 30 µM (inactive) | > 30 µM (inactive) | 3.6 µM (active)
15 | Cc1cc(-c2cc(O)ccc2Cl)cc2nnc(Nc3ccc(OCCN4CCCC4)cc3)nc12 | > 30 µM (inactive) | > 30 µM (inactive) | > 30 µM (inactive) | > 30 µM (inactive) | > 30 µM (inactive) | > 30 µM (inactive) | > 30 µM (inactive) | > 30 µM (inactive) | > 30 µM (inactive)
